Experimental data: the supplement of paper PMC10307832

Columns and labels:
Test in all cases: relative viability (nuclei count vs DMSO), 5 days (fraction); higher = more cells survive
[1] = compound: O=C(O)c1ccc2c(c1)nc(Nc1cccc(Cl)c1)c1ccncc12 [Silmitasertib] + CCNC(=O)c1noc(-c2cc(C(C)C)c(O)cc2O)c1-c1ccc(CN2CCOCC2)cc1 [Luminespib] (partner 0.01 µM)
Procedure, shortened: (§1)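 Lung cancer cell lines in 1536-well plates got either a single drug or a fixed anchor-drug dose together with five library-drug doses (not always all listed) in √10 steps, by pin tool, on the day after seeding. Nuclei were counted after 5 days, and relative viability is the treated-to-vehicle ratio of nuclei counts. Values are medians of duplicate plates.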

[2] = compound: O=C(O)c1ccc2c(c1)nc(Nc1cccc(Cl)c1)c1ccncc12 [Silmitasertib] + COc1cc2c(Oc3ccc(NC(=O)C4(C(=O)Nc5ccc(F)cc5)CC4)cc3F)ccnc2cc1OCCCN1CCOCC1 [Foretinib] (partner 0.25 µM)
Procedure, shortened: as §1

[3] = compound: O=C(O)c1ccc2c(c1)nc(Nc1cccc(Cl)c1)c1ccncc12 [Silmitasertib] + COc1cccc2cc(-c3nc([C@H]4CC[C@H](C(=O)O)CC4)n4ncnc(N)c34)[nH]c12 [OSI-027] (partner 0.5 µM)
Procedure, shortened: as §1

[4] = compound: O=C(O)c1ccc2c(c1)nc(Nc1cccc(Cl)c1)c1ccncc12 [Silmitasertib] + Nc1ncn([C@H]2C[C@H](O)[C@@H](CO)O2)c(=O)n1 [Decitabine] (partner 2 µM)
Procedure, shortened: as §1

[5] = compound: O=C(O)c1ccc2c(c1)nc(Nc1cccc(Cl)c1)c1ccncc12 [Silmitasertib] + Cc1nc(NC(=O)N2CCC[C@H]2C(N)=O)sc1-c1ccnc(C(C)(C)C(F)(F)F)c1 [Alpelisib] (partner 2 µM)
Procedure, shortened: as §1

Cell Line	relative viability ([1]; first compound 0.04 µM)	relative viability ([1]; first compound 0.4 µM)	relative viability ([1]; first compound 1.265 µM)	relative viability ([1]; first compound 4 µM)	relative viability ([2]; first compound 0.04 µM)	relative viability ([2]; first compound 0.4 µM)	relative viability ([2]; first compound 1.265 µM)	relative viability ([2]; first compound 4 µM)	relative viability ([3]; first compound 0.04 µM)	relative viability ([3]; first compound 0.4 µM)	relative viability ([3]; first compound 1.265 µM)	relative viability ([3]; first compound 4 µM)	relative viability ([4]; first compound 0.04 µM)	relative viability ([4]; first compound 1.265 µM)	relative viability ([4]; first compound 4 µM)	relative viability ([5]; first compound 0.04 µM)	relative viability ([5]; first compound 0.4 µM)	relative viability ([5]; first compound 1.265 µM)	relative viability ([5]; first compound 4 µM)	relative viability ([4]; first compound 0.4 µM)
NCI-H2342	0.708	0.729	0.715	0.778	1.19	0.981	0.889	1.14	0.762	0.606	0.504	0.539	0.791	0.79	0.743	–	–	–	–	–
SK-MES-1	0.821	0.801	0.397	0.213	1.12	0.885	0.946	0.535	0.675	0.558	0.435	0.236	0.396	0.328	0.209	0.87	0.896	0.788	0.446	0.382
LCLC-97TM1	0.892	–	0.691	0.442	0.905	–	0.809	0.861	0.545	–	0.339	0.198	0.236	0.209	0.251	0.216	–	0.165	0.14	–
NCI-H2170	0.657	0.593	0.656	0.707	1.01	0.881	0.916	1.01	0.798	0.535	0.619	0.54	0.477	0.457	0.441	0.805	0.648	0.697	0.771	0.46
NCI-H1993	0.874	0.697	0.621	0.617	0.817	0.652	0.651	0.65	0.544	0.56	0.614	0.658	0.544	0.552	0.514	0.662	0.602	0.617	0.688	0.494
NCI-H460	0.0354	0.0304	0.0278	0.0318	1.04	0.961	1.07	1.15	0.822	0.688	0.64	0.672	0.551	0.478	0.363	0.488	0.512	0.466	0.421	0.511
NCI-H1975	0.199	–	0.184	0.136	0.883	–	0.802	0.83	0.67	–	0.645	0.66	0.455	0.277	0.401	0.683	0.532	0.589	0.468	–
RERF-LC-KJ	1.24	1.19	1.08	0.633	0.887	0.753	0.765	0.628	0.627	0.484	0.41	0.373	0.766	0.455	0.344	0.929	0.797	0.66	0.51	0.627
NCI-H322M	0.968	0.893	0.693	0.44	1.01	0.836	0.623	0.544	0.619	0.467	0.383	0.372	0.727	0.674	0.649	0.763	0.71	0.559	0.465	0.686
CAL-12T	0.363	0.531	0.278	0.125	1.12	1.02	1.06	0.478	0.839	0.542	0.29	0.23	–	–	–	1.38	1.21	0.802	0.551	–
NCI-H1792	0.452	0.385	0.57	0.375	–	–	–	–	0.815	0.675	0.782	0.699	0.6	0.529	0.515	0.671	0.595	0.683	0.727	0.492
HCC-366	–	–	–	–	1	0.877	0.78	1.02	0.896	0.489	0.7	0.0818	0.37	0.31	0.379	0.453	–	0.317	0.383	0.347
HCC-44	1.14	1.07	1.05	1.09	–	–	–	–	0.524	0.606	0.508	0.29	0.933	1.01	0.825	0.767	0.761	0.769	0.741	0.929
NCI-H1703	–	–	–	–	0.348	0.375	0.359	0.415	–	–	–	–	–	–	–	0.334	0.312	0.392	0.452	–
NCI-H1650	0.187	0.203	0.192	0.21	1.47	1.34	0.902	0.653	0.99	0.511	0.496	0.203	0.525	0.315	0.254	–	–	–	–	0.419
HCC-78	–	–	–	–	0.503	0.523	0.457	0.621	0.437	0.346	0.369	0.335	0.64	0.381	0.613	0.417	0.243	0.268	0.319	0.603
NCI-H522	1.71	0.859	0.938	1.24	–	–	–	–	0.739	0.762	0.684	0.67	0.653	0.69	0.655	–	–	–	–	0.62
SW 900	0.188	0.167	0.157	0.178	1.05	0.477	0.817	0.424	0.648	0.304	0.388	0.207	0.499	0.377	0.347	–	–	–	–	0.422
NCI-H2228	0.178	–	0.145	0.135	1	–	0.926	1.1	0.541	–	0.583	0.494	–	–	–	0.785	0.821	0.821	0.808	–
